Data as given in paper PMC9161374 (Science Translational Medicine, 2022).
Values joined by “and” are separate entries in the source; they are usually repeats but may differ in a detail not shown here. Equal entries are not always repeated.

How the values were obtained:
[1] = system: SARS-CoV-2 (Delta, B.1.617.2); experiment: microbe, parasite or virus in culture; format: cell-based; conditions: for % Inhibition: delta
[2] = system: SARS-CoV-2 (B.1) in Huh7 cells; experiment: Anti-SARS-CoV-2 activity in Huh7 cells (viral yield by qRT-PCR); format: cell-based; conditions: B.1, MOI 0.05, 48 h
[3] = CCK-8 cell viability assay; format: cell-based, African green monkey; conditions: African green monkey; Vero E6 cells, 48 h, CCK8
How it was run: (§1)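 Vero E6 cells, 20,000/well, exposed to compound at 0–200 μM (0, 0.01, 0.1, 1, 5, 10, 50, 75, 100, 200 μM) for 48 h; viability read by CCK-8 and expressed as percentage versus drug concentration, mean ± SD.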

Vero E6 cells = experiment: CCK-8 cell viability assay; format: cell-based, African green monkey; conditions: individual replicate values, Fig.S4
How it was run: as §1

[4] = Permeability and efflux ratio in Caco-2 cells; format: in vitro ADME; conditions: human
Excerpt: ATV019, and ATV020 in Caco-2 cells.
Compound Caco-2 AB/BA (Papp (10-6 cm/s)) a Efflux ratio

[5] = Tissue distribution study in rats; format: in vivo, Sprague Dawley rats; conditions: rat, oral 100 mg/kg, individual animals, 100 mg/kg
Procedure: Three rats in each group were anesthetized at 1-, 4-, and 24-hours post-dosing. Blood samples were collected into the heparinized tubes which containing PhosSTOP and DTNB and centrifuged. Tissue samples, including liver, kidney, and lung were harvested after perfusion with saline and immediately homogenized for further analysis as previously described ([64]). […] For RMP and RTP determination, 50 μL of plasma or homogenate was immediately added to 150 μL of 2% formic acid and 5 μL of 10 μM ^13C,^15N-adenosine triphosphate (ATP) aqueous solution, then vortexed thoroughly and centrifuged at 4°C. Supernatant in a volume of 180 μL was mixed with an equivalent volume of water for solid-phase extraction (SPE) with a weak anion exchange plate (Waters Oasis WAX μElution plate). Finally, the eluate was gently evaporated to dryness under a gentle stream of air, and the residue was reconstituted with 100 μL H2O for analysis on a Waters Positive Pressure-96 processor.

## CC(C)C(=O)OC[C@H]1O[C@@](C#N)(c2ccc3c(N)ncnn23)[C@H](O)[C@@H]1O [ATV006]
[1]; Severe acute respiratory syndrome coronavirus 2, Vero C1008, delta, 1 uM, Vero E6, replicates
  inhibition at 1 µM: 94.7%
[1]; Severe acute respiratory syndrome coronavirus 2, Vero C1008, delta, 2 uM, Vero E6, replicates
  inhibition at 2 µM: 96.7%
[1]; Severe acute respiratory syndrome coronavirus 2, Vero C1008, delta, 5 uM, Vero E6, replicates
  inhibition at 5 µM: 95.5%
[1]; Severe acute respiratory syndrome coronavirus 2, Vero C1008, delta, 10 uM, Vero E6, replicates
  inhibition at 10 µM: 99.9%
[1]; Severe acute respiratory syndrome coronavirus 2, Vero C1008, delta, 50 uM, Vero E6, replicates
  inhibition at 50 µM: 99.9%
[1]; Severe acute respiratory syndrome coronavirus 2, Vero C1008, read-out: EC90 (Confidence 95%), Vero-E6, Delta B.1.617.2
  EC90: 0.506 µM
[1]; 0.25 uM, Vero E6, replicates
  % Inhibition: 17.4307%
[1]; 0.5 uM, Vero E6, replicates
  % Inhibition: 86.6826%
[1]; 1 uM, Vero E6, replicates
  % Inhibition: 92.7523%
[1]; 2 uM, Vero E6, replicates
  % Inhibition: 95.2669%
[1]; 5 uM, Vero E6, replicates
  % Inhibition: 93.5585%
[1]; 10 uM, Vero E6, replicates
  % Inhibition: 99.4329%
[1]; 50 uM, Vero E6, replicates
  % Inhibition: 99.3835%
[2]; Severe acute respiratory syndrome coronavirus 2, Huh-7, read-out: EC50 (Confidence 95%) in Huh7 cells
  EC50: 1.63 µM
[2]; Severe acute respiratory syndrome coronavirus 2, Huh-7, read-out: EC90 (Confidence 95%) in Huh7 cells
  EC90: 1.96 µM
[3]
  CC50 at 48 h: 128 µM
Vero E6 cells; 0.01 μM compound, 0.01 µM
  cell viability (% of control): 93.4165 % of control and 118.52 % of control and 111.314 % of control
Vero E6 cells; 0.1 μM compound, 0.1 µM
  cell viability (% of control): 114.92 % of control and 109.106 % of control and 122.304 % of control
Vero E6 cells; 1 μM compound, 1 µM
  cell viability (% of control): 103.338 % of control and 92.7243 % of control and 89.4018 % of control
Vero E6 cells; 2 μM compound, 2 µM
  cell viability (% of control): 94.6163 % of control and 92.5859 % of control and 102 % of control
Vero E6 cells; 5 μM compound, 5 µM
  cell viability (% of control): 130.333 % of control and 131.994 % of control and 107.906 % of control
Vero E6 cells; 10 μM compound, 10 µM
  cell viability (% of control): 124.057 % of control and 118.52 % of control and 118.981 % of control
Vero E6 cells; 50 μM compound, 50 µM
  cell viability (% of control): 93.4165 % of control and 89.4165 % of control
Vero E6 cells; 75 μM compound, 75 µM
  cell viability (% of control): 60.8815 % of control and 65.7193 % of control and 58.2133 % of control
Vero E6 cells; 100 μM compound, 100 µM
  cell viability (% of control): 50.7027 % of control and 56.7073 % of control and 50.0144 % of control
Vero E6 cells; 200 μM compound, 200 µM
  cell viability (% of control): 35.664 % of control and 47.0944 % of control and 42.1024 % of control
[4]
  efflux ratio: 1.7
[4]; AB
  Papp A→B: 5.1 nm/s
[4]; BA
  Papp B→A: 8.7 nm/s
[5]; 1h
  Cmax, GS-441525 in brain: 0.717 nmol/kg and 1.164 nmol/kg and 1.176 nmol/kg
  Cmax, GS-441525 in kidney: 220.56 nmol/kg and 166.84 nmol/kg and 182.64 nmol/kg
  Cmax, GS-441525 in liver: 56.04 nmol/kg and 36.188 nmol/kg and 53.92 nmol/kg
  Cmax, GS-441525 in lung: 49 nmol/kg and 29.492 nmol/kg and 44.72 nmol/kg
  Cmax, RTP in kidney: 0.0784 nmol/kg and 0 nmol/kg and 0.0835 nmol/kg
  Cmax, RTP in liver: 0.279 nmol/kg and 1.085 nmol/kg and 1.739 nmol/kg
  Cmax, RTP in lung: 0.167 nmol/kg and 0.107 nmol/kg and 0.1 nmol/kg
[5]; 4h
  Cmax, GS-441525 in brain: 0.208 nmol/kg and 0.227 nmol/kg and 0.506 nmol/kg
  Cmax, GS-441525 in kidney: 49.24 nmol/kg and 31.336 nmol/kg and 40.16 nmol/kg
  Cmax, GS-441525 in liver: 21.084 nmol/kg and 14.292 nmol/kg and 18.936 nmol/kg
  Cmax, GS-441525 in lung: 10.048 nmol/kg and 8.088 nmol/kg and 8.604 nmol/kg
  Cmax, RTP in kidney: 0.354 nmol/kg and 0.345 nmol/kg and 0.186 nmol/kg
  Cmax, RTP in liver: 1.765 nmol/kg and 0.82 nmol/kg and 0.878 nmol/kg
  Cmax, RTP in lung: 0.328 nmol/kg and 0.343 nmol/kg and 0.26 nmol/kg
[5]; 24h
  Cmax, GS-441525 in brain: 0 nmol/kg (2×) and 0.0506 nmol/kg
  Cmax, GS-441525 in kidney: 0.54 nmol/kg and 7 nmol/kg and 0.459 nmol/kg
  Cmax, GS-441525 in liver: 0.243 nmol/kg and 2.843 nmol/kg and 0.303 nmol/kg
  Cmax, GS-441525 in lung: 0.136 nmol/kg and 1.289 nmol/kg and 0.0964 nmol/kg
  Cmax, RTP in kidney: 0.0664 nmol/kg and 0.068 nmol/kg and 0 nmol/kg
  Cmax, RTP in liver: 0.325 nmol/kg and 0.223 nmol/kg and 0.759 nmol/kg
  Cmax, RTP in lung: 0.191 nmol/kg and 0.249 nmol/kg and 0 nmol/kg
